Measured values taken from ChEMBL document CHEMBL1201862, “PubChem BioAssay data set” (2004).
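Values below derive from 48-hour exposures of cells grown in 96-well plates, with endpoints linearly interpolated between the two concentrations bracketing the appropriate inhibition level. Abbreviation: GI50, concentration required for 50% inhibition of growth.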 Calls of active or inactive are those of the source. Rule as the data show it: active = GI50 up to about 1.1 µM and inactive = higher.

How the values were obtained:
Assay in all cases: inhibition of tumour cell growth, NCI panel, 48 h
ACHN = tested on: ACHN
CCRF-CEM = tested on: CCRF-CEM
HCC 2998 = tested on: HCC 2998
HCT-116 = tested on: HCT-116
HL-60 = tested on: HL-60
IGROV-1 = tested on: IGROV-1
M14 = tested on: M14
MDA-MB-231 = tested on: MDA-MB-231
MDA-MB-435 = tested on: MDA-MB-435
MDA-N = tested on: MDA-N
MOLT-4 = tested on: MOLT-4
NCI-H23 = tested on: NCI-H23
NCI-H460 = tested on: NCI-H460
OVCAR-5 = tested on: OVCAR-5
RPMI-8226 = tested on: RPMI-8226
SF-295 = tested on: SF-295
SF-539 = tested on: SF-539
SNB-19 = tested on: SNB-19
T47D = tested on: T47D
UACC-62 = tested on: UACC-62

Row | Compound | GI50 (ACHN) | GI50 (CCRF-CEM) | GI50 (HCC 2998) | GI50 (HCT-116) | GI50 (HL-60) | GI50 (IGROV-1) | GI50 (M14) | GI50 (MDA-MB-231) | GI50 (MDA-MB-435) | GI50 (MDA-N) | GI50 (MOLT-4) | GI50 (NCI-H23) | GI50 (NCI-H460) | GI50 (OVCAR-5) | GI50 (RPMI-8226) | GI50 (SF-295) | GI50 (SF-539) | GI50 (SNB-19) | GI50 (T47D) | GI50 (UACC-62)
1 | O=C(OCc1ccccc1)c1ccc(NCc2cc(O)ccc2O)cc1 | 1.43 µM (inactive) | 0.308 µM (active) | 2.15 µM (inactive) | 1.51 µM (inactive) | 0.303 µM (active) | 1.23 µM (inactive) | 1.91 µM (inactive) | 1.91 µM (inactive) | 1.58 µM (inactive) | 1.56 µM (inactive) | 0.535 µM (active) | 1.53 µM (inactive) | 3.42 µM (inactive) | 3.85 µM (inactive) | 0.372 µM (active) | 6.12 µM (inactive) | 0.902 µM (active) | 2.85 µM (inactive) | 1.51 µM (inactive) | 1.56 µM (inactive)
2 | Nc1nc(-c2cc(-c3cccc4ccccc34)nc(N)n2)cc(-c2cccc3ccccc23)n1 | > 100 µM (inactive) | > 100 µM (inactive) | > 100 µM (inactive) | > 100 µM (inactive) | > 100 µM (inactive) | > 100 µM (inactive) | > 100 µM (inactive) | > 100 µM (inactive) | > 100 µM (inactive) | > 100 µM (inactive) | > 100 µM (inactive) | > 100 µM (inactive) | > 100 µM (inactive) | > 100 µM (inactive) | > 100 µM (inactive) | 65.8 µM (inactive) | > 100 µM (inactive) | > 100 µM (inactive) | > 100 µM (inactive) | > 100 µM (inactive)
3 | O=c1c2cccnc2[s+]([O-])n1Cc1ccccc1 (stereo not given) | > 100 µM (inactive) | 3.01 µM (inactive) | > 100 µM (inactive) | > 100 µM (inactive) | > 10 µM (inactive) | > 100 µM (inactive) | > 100 µM (inactive) | > 100 µM (inactive) | > 100 µM (inactive) | > 100 µM (inactive) | > 100 µM (inactive) | > 100 µM (inactive) | > 100 µM (inactive) | > 100 µM (inactive) | > 100 µM (inactive) | > 100 µM (inactive) | > 100 µM (inactive) | > 100 µM (inactive) | > 100 µM (inactive) | > 100 µM (inactive)
4 | COc1cc2c(C)cc(O)cc2c2cc(O)c(C)cc12 | 12.4 µM (inactive) | 2.78 µM (inactive) | 13.5 µM (inactive) | 10.7 µM (inactive) | 2.96 µM (inactive) | 14.1 µM (inactive) | 1.94 µM (inactive) | 9.66 µM (inactive) | 9.75 µM (inactive) | 10.2 µM (inactive) | 5.83 µM (inactive) | 11.5 µM (inactive) | 2.56 µM (inactive) | 13.7 µM (inactive) | 1.91 µM (inactive) | 12.9 µM (inactive) | 9.14 µM (inactive) | 11.5 µM (inactive) | 10.1 µM (inactive) | 12 µM (inactive)
5 | CCn1c(O)c(C(=O)NC(C)c2ccc([N+](=O)[O-])cc2)c(=O)n(CC)c1=S (stereo not given) | 3.1 µM (inactive) | 1.59 µM (inactive) | 3.29 µM (inactive) | 1.64 µM (inactive) | 2.28 µM (inactive) | 2.75 µM (inactive) | 2.6 µM (inactive) | 2.91 µM (inactive) | 3.62 µM (inactive) | 3.59 µM (inactive) | 2.05 µM (inactive) | 1.77 µM (inactive) | 2.41 µM (inactive) | 2.23 µM (inactive) | 1.43 µM (inactive) | 1 µM (active) | 3.93 µM (inactive) | 1.93 µM (inactive) | 3.33 µM (inactive) | 2.17 µM (inactive)
6 | CCOC(=O)c1cn(CC)c2ccc3c(c2c1=O)S(=O)(=O)C=C3 | > 100 µM (inactive) | > 100 µM (inactive) | > 100 µM (inactive) | > 100 µM (inactive) | > 100 µM (inactive) | > 100 µM (inactive) | > 100 µM (inactive) | > 100 µM (inactive) | > 100 µM (inactive) | > 100 µM (inactive) | > 100 µM (inactive) | > 100 µM (inactive) | > 100 µM (inactive) | > 100 µM (inactive) | > 100 µM (inactive) | > 100 µM (inactive) | > 100 µM (inactive) | > 100 µM (inactive) | > 100 µM (inactive) | > 100 µM (inactive)
7 | O=C1C(=Cc2ccccc2[N+](=O)[O-])N=C(c2ccccc2)N1n1c(-c2ccccc2)nc2ccccc2c1=O | 30.8 µM (inactive) | 31 µM (inactive) | 35.8 µM (inactive) | 17 µM (inactive) | > 10 µM (inactive) | 32.2 µM (inactive) | 42.5 µM (inactive) | 27.6 µM (inactive) | 32.4 µM (inactive) | 36.4 µM (inactive) | 27.8 µM (inactive) | 20.2 µM (inactive) | 31.3 µM (inactive) | 71.3 µM (inactive) | 20.5 µM (inactive) | 30.9 µM (inactive) | 25.8 µM (inactive) | 35.3 µM (inactive) | 21 µM (inactive) | 19.1 µM (inactive)
8 | CC(C)(Cl)C(Br)CC/C(=C/CCl)CBr.CC(C)(Cl)C(Br)CC/C(=C\CCl)CBr (stereo not given) | 2.77 µM (inactive) | 1.32 µM (inactive) | 1.58 µM (inactive) | 1.77 µM (inactive) | 0.802 µM (active) | 2.31 µM (inactive) | 1.9 µM (inactive) | 1.74 µM (inactive) | 2 µM (inactive) | 1.64 µM (inactive) | 1.34 µM (inactive) | 1.91 µM (inactive) | 2.02 µM (inactive) | 8.89 µM (inactive) | 1.17 µM (inactive) | 3.51 µM (inactive) | 1.88 µM (inactive) | 2.1 µM (inactive) | 1.08 µM (active) | 1.93 µM (inactive)
9 | CC1(C)OC2C(CO)OC(n3ccc(=O)[nH]c3=O)C2O1 (stereo not given) | > 100 µM (inactive) | > 100 µM (inactive) | > 100 µM (inactive) | > 100 µM (inactive) | > 100 µM (inactive) | > 100 µM (inactive) | > 100 µM (inactive) | > 100 µM (inactive) | > 100 µM (inactive) | > 100 µM (inactive) | > 100 µM (inactive) | > 100 µM (inactive) | > 100 µM (inactive) | > 100 µM (inactive) | > 100 µM (inactive) | > 100 µM (inactive) | > 100 µM (inactive) | > 100 µM (inactive) | > 100 µM (inactive) | > 100 µM (inactive)
10 | Cc1nn(C(=O)c2ccc(Cl)cc2)c2c1C(c1ccccc1O)SC(=N)N2 (stereo not given) | > 10 µM (inactive) | > 10 µM (inactive) | > 10 µM (inactive) | > 10 µM (inactive) | > 10 µM (inactive) | > 10 µM (inactive) | > 10 µM (inactive) | > 10 µM (inactive) | > 10 µM (inactive) | > 10 µM (inactive) | > 10 µM (inactive) | > 10 µM (inactive) | > 10 µM (inactive) | > 10 µM (inactive) | > 10 µM (inactive) | > 10 µM (inactive) | > 10 µM (inactive) | > 10 µM (inactive) | > 10 µM (inactive) | > 10 µM (inactive)
11 | Cc1nn(C(=O)c2ccncc2)c2c1C(c1cccc([N+](=O)[O-])c1)SC(=N)N2 (stereo not given) | > 10 µM (inactive) | > 10 µM (inactive) | > 10 µM (inactive) | > 10 µM (inactive) | > 10 µM (inactive) | > 10 µM (inactive) | > 10 µM (inactive) | > 10 µM (inactive) | > 10 µM (inactive) | > 10 µM (inactive) | > 10 µM (inactive) | > 10 µM (inactive) | > 10 µM (inactive) | > 10 µM (inactive) | > 10 µM (inactive) | > 10 µM (inactive) | > 10 µM (inactive) | > 10 µM (inactive) | > 10 µM (inactive) | > 10 µM (inactive)
12 | CCOC(=O)C1=NOC2(C=C(Br)C(=O)C(Br)=C2)C1 | 0.923 µM (active) | < 0.0132 µM (active) | 1.79 µM (inactive) | 1.1 µM (active) | 0.28 µM (active) | 7.36 µM (inactive) | 1.67 µM (inactive) | 6.78 µM (inactive) | 1.76 µM (inactive) | 1.64 µM (inactive) | < 0.0346 µM (active) | 3.05 µM (inactive) | 6.55 µM (inactive) | 5.47 µM (inactive) | 0.217 µM (active) | 15.5 µM (inactive) | 4.43 µM (inactive) | 19 µM (inactive) | 1.21 µM (inactive) | 3.7 µM (inactive)
13 | COc1cc2cc3c4cc(OC)c(OC)cc4cc[n+]3c(C)c2cc1OC.O=C([O-])CS(=O)(=O)O | > 100 µM (inactive) | 33.2 µM (inactive) | > 100 µM (inactive) | > 100 µM (inactive) | 24.2 µM (inactive) | 80.9 µM (inactive) | > 100 µM (inactive) | 70.5 µM (inactive) | 42.3 µM (inactive) | 49.4 µM (inactive) | > 100 µM (inactive) | 7.87 µM (inactive) | > 100 µM (inactive) | > 100 µM (inactive) | 68.4 µM (inactive) | > 100 µM (inactive) | 42.7 µM (inactive) | 17.7 µM (inactive) | 26.8 µM (inactive) | 65.9 µM (inactive)
14 | CCOC(=O)c1[nH]c(Br)c(-c2ccc(Br)cc2)c1Br | 1.13 µM (inactive) | 8.15 µM (inactive) | 5.79 µM (inactive) | 0.376 µM (active) | 2.09 µM (inactive) | 0.601 µM (active) | 0.386 µM (active) | 1.2 µM (inactive) | 0.186 µM (active) | 0.213 µM (active) | 0.367 µM (active) | 2.14 µM (inactive) | 5.25 µM (inactive) | 2.5 µM (inactive) | 6.73 µM (inactive) | 0.263 µM (active) | 0.441 µM (active) | 1.3 µM (inactive) | 2.39 µM (inactive) | 0.234 µM (active)
